Read-outs that look alike come from different tables or passages of the source. Marks after values point to notes of the source that are not given here.
Columns and labels:
[1] = system: Meloidogyne incognita; experiment: M. incognita miniaturized greenhouse assay on cucumber seedlings (root galling); assay type: in vivo; design: key to 1 ppm gall ratings / 1 ppm gall rating: mean of 3 gall ratings: 0=0-5%, 1=6-20%, 2=21-50%, 3=51-100% root galled; details: for 8 ppm gall ratings: average of triplicate gall rating, scale 0-3 (% root mass galled)
Outline: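 Compound in acetone/Triton X100 stock (5 mg/mL) diluted into water with 0.015% Triton X100 and applied to sand-planted sprouted cucumber seedlings; inoculated with 500 M. incognita eggs two days after planting. Roots harvested 10–12 days later; galling scored 0–3 by % root mass galled, averaged over triplicates, plus visual root phytotoxicity rating.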

[2] = system: root knot nematode (RKN); experiment: RKN greenhouse soil assay on cucumber plants; assay type: in vivo, Meloidogyne incognita
Outline: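 Cucumber in sandy soil in pots drenched with 5 ml compound solution (acetone in 0.05% Triton X 100; 1 mg per four pots = 1 kg/ha), 7 days or 0 days before inoculation. Root knot nematode eggs applied ≥4 h after treatment; galling rated 14 days after inoculation, four replicates.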

[3] = system: root knot nematode; experiment: Pre-plant incorporated (PPI) greenhouse test of root knot nematode on cucumber plants; assay type: in vivo, Meloidogyne incognita; details: for pest or weed control at 4000 g/ha / pest or weed control at 8000 g/ha / pest or weed control at 2000 g/ha: Meloidogyne incognita, read-out: percent control (galling reduction) relative to the control blank treatment
Excerpt: The PPI test examines the effect of pre-incorporation of compounds in soil and longer aging to simulate in furrow methods of nematicide application in the field. The PPI test exposes compounds to a higher volume of soil and drying which can result in more severe soil binding. Compounds are also aged for longer periods which can lead to more extensive biotic and abiotic degradation further limiting activity.
The chemically treated soil (sandy soil mix) for all treatment days (e.g., 7 days, 14 days, 21 days) treatments is potted into their appropriate pots. On the same day the 7 day treatment pots are seeded. One week later eggs are applied and 14 days after egg application the test is harvested. The 14 day treatments are planted 7 days after the first planting. The 14 day planting and 7 day inoculation happen on the same day. One week later the 14 day treatments are inoculated with eggs. These are harvested 14 days after the inoculation. The 21 day treatments are planted 14 days after the first planting. The 14 day inoculation and 21 day planting are done on the same day. One week later the 21 day plants are inoculated with eggs. The 7 day treatment is harvested the same day as the 21 day inoculation. Fourteen days after inoculation the 21 day plants are harvested.
For each compound a stock is prepared using 4 mg material in 4 ml of acetone. The soil is mixed by placing 80 ml of field soil and 320 ml of sand in a plastic bag and mixing well. The formulation for treatment is done by adding 2.13 ml (8 kg/ha rate), 1.06 ml (4 kg/ha rate) or 0.53 ml (2 kg/ha rate) to a vial and raising it with 10 ml in 0.05%×100. Soil is then treated by adding the entire 10 ml to the 400 ml of mix in the bag. The treated soil is immediately mixed well in the sealed bag to distribute the compound evenly. Approximately 95 ml is used to fill each 2-inch square pot up to the top with some soil compression and flattening. For each compound and for the control treatments 4 pots are filled. All pots are watered until moist but with no run-out through the bottom.
The PPI test simulates 8, 4 and 2 kg/ha rates incorporated 15 cm deep in the field and is equivalent to the 2, 1 and 0.5 kg/ha drench application rates in the standard 2-inch pot cucumber greenhouse assay.

[4] = Acetone 1 mg/kg, standard 10% acetone in 0.05% Triton X 100 formulation
[5] = Radex 1 mg/kg, emulsifiable concentrate, 6.25% active ingredient by weight
[6] = fourteen day pre-plant incorporated, 2 kg/ha rate, test a
[7] = fourteen day pre-plant incorporated, 4 kg/ha rate, test a
[8] = fourteen day pre-plant incorporated, 4 kg/ha rate, test b
[9] = fourteen day pre-plant incorporated, 8 ka/ha rate, test a
[10] = fourteen day pre-plant incorporated, 8 ka/ha rate, test b
[11] = 0 day treatment, 0.05 kg/ha, test a
[12] = 0 day treatment, 0.1 kg/ha, test a
[13] = 0 day treatment, 0.25 kg/ha, test a
[14] = 0 day treatment, 1 kg/ha, test b
[15] = 24 h, twenty one day pre-plant incorporated, 4 kg/ha rate
[16] = 24 h, twenty one day pre-plant incorporated, 8 ka/ha rate

Row | SMILES | 1 ppm gall ratings ([1]; Table 1B test c) | 1 ppm gall ratings ([1]; Table 1B test d) | 1 ppm gall ratings ([1]; Table 1B test e) | percent control (galling reduction) relative to the appropriate control blank treatment [2, 4] | percent control (galling reduction) relative to the appropriate control blank treatment [2, 5] | 1 ppm gall ratings ([1]; Table 1B test a) | 1 ppm gall ratings ([1]; Table 1B test b) | 1 ppm gall rating ([1]; Table 1C test a) | 1 ppm gall rating ([1]; Table 1C test b) | 1 ppm gall rating ([1]; Table 1D test a) | 8 ppm gall rating ([1]; Table 1D test a) | 8 ppm gall ratings [1] | percent control (galling reduction) relative to the control blank treatment [2, 11] | percent control (galling reduction) relative to the control blank treatment [2, 12] | percent control (galling reduction) relative to the control blank treatment [2, 13] | percent control (galling reduction) relative to the control blank treatment [2, 14] | pest or weed control at 4000 g/ha [3, 15] | pest or weed control at 8000 g/ha [3, 16] | pest or weed control at 2000 g/ha [3, 6] | pest or weed control at 4000 g/ha [3, 7] | further results
1 | CCOP(=O)(NC(C)C)Oc1ccc(SC)c(C)c1 (stereo not shown) [Fenamiphos, fenamiphos, reference compound] | 0^c, 0^d, 0^e (0=0-5%) | 0^c, 0^d, 0^e (0=0-5%) | 0^c, 0^d, 0^e (0=0-5%) | 98% | 99% |  |  |  |  |  |  |  |  |  |  |  |  |  |  |  | percent control (galling reduction) relative to the control blank treatment [3, 6]: 88^a percent; percent control (galling reduction) relative to the control blank treatment [3, 7]: 99^a percent; percent control (galling reduction) relative to the control blank treatment [3, 8]: 100^b percent; percent control (galling reduction) relative to the control blank treatment [3, 9]: 100^a percent; percent control (galling reduction) relative to the control blank treatment [3, 10]: 100^b percent; percent control (galling reduction) relative to the control blank treatment ([3]; seven day pre-plant incorporated, 4 kg/ha rate): 96%; percent control (galling reduction) relative to the control blank treatment ([3]; seven day pre-plant incorporated, 8 ka/ha rate): 100%; percent control (galling reduction) relative to the control blank treatment ([3]; twenty one day pre-plant incorporated, 4 kg/ha rate): 84%; percent control (galling reduction) relative to the control blank treatment ([3]; twenty one day pre-plant incorporated, 8 ka/ha rate): 99%
2 | c1ccc(-c2noc(-c3cccs3)n2)cc1 [compound 1822] | 0.33 | 0 (0=0-5%) |  | 94% | 98% | 0.33 | 0.67 | 0 (0=0-5%) | 0.33 | 1.33^a | 0^a (0=0-5%) | 0 (0=0-5%) | 7^a percent | 47^a percent | 60% | 81% | 82% | 95% | 67% | 97% | percent control (galling reduction) relative to the control blank treatment ([2]; 0 day treatment, 0.25 kg/ha, test b): 64%; percent control (galling reduction) relative to the control blank treatment ([2]; 0 day treatment, 1 kg/ha, test a): 89%; percent control (galling reduction) relative to the control blank treatment ([2]; 7 day treatment, 1 kg/ha, test a): 85%; percent control (galling reduction) relative to the control blank treatment ([2]; 7 day treatment, 1 kg/ha, test b): 75%; pest or weed control at 4000 g/ha ([3]; 168 h, seven day pre-plant incorporated, 4 kg/ha rate): 99%; pest or weed control at 8000 g/ha ([3]; 168 h, seven day pre-plant incorporated, 8 ka/ha rate): 99%; pest or weed control at 8000 g/ha [3, 9]: 100%
3 | Brc1ccc(-c2cnc(-c3cccs3)o2)cc1 [compound 4776] | 0.33 | 0.33 |  |  |  | 1 (1=6-20%) | 1 (1=6-20%) | 1 (1=6-20%) | 0.33 | 0^a (0=0-5%) | 0^a (0=0-5%) | 0 (0=0-5%) |  |  |  | — 99^b percent | 50% | 80% |  |  | 1 ppm gall rating ([1]; Table 1C test c): 1 (1=6-20%)
4 | Cc1cc(Cl)ccc1-c1noc(-c2ccco2)n1 [compound 5823] |  |  | 0.33 |  |  | 1.67 | 0.33 |  |  |  |  |  | 53% | 85% | 95% |  |  |  | 85% | 98% | percent control (galling reduction) relative to the control blank treatment ([2]; 0 day treatment, 0.05 kg/ha, test c): 38%; percent control (galling reduction) relative to the control blank treatment ([2]; 0 day treatment, 0.1 kg/ha, test c): 91%; percent control (galling reduction) relative to the control blank treatment ([2]; 0 day treatment, 0.25 kg/ha, test c): 98%; pest or weed control at 4000 g/ha [3, 8]: 94%; pest or weed control at 8000 g/ha [3, 9]: 100%; pest or weed control at 8000 g/ha [3, 10]: 100%

Reference: US10827753B2, “Compositions and methods for controlling nematodes” (Monsanto Technology LLC, priority 2007, dated 2020)
